Experimental data reported in US20210095293A1, “METHODS OF TREATING CANCERS WITH GPR132 INHIBITORS” (The Board of Regents of the University of Texas System, priority 2016, published 2021).

Assays:
[1] = test system: 4T1.2 cells; assay: adherence assay of breast cancer cells to fibronectin; format: cell-based, mouse; conditions: macrophages activated by 4T1.2 CM or lactate (5 mM); vs untreated control macrophages
Description: FIGS. 11A-11C. Lactate-activated macrophage promotes cancer cell adhesion, migration and invasion via Gpr132. (FIG. 11A) Adherence assays. 4T1.2 cells were suspended in fibronectin ([…]) pre-coated plates with CM from spleen-derived macrophages (mf) that were treated with 4T1.2 CM or lactate (5 mM) with or without Gpr132 antibody (6 mg/ml) or normal IgG (6 mg/ml) for 10 min. The adhered cells were stained with crystal violet, dissolved in 1% Triton X-100 and measured by OD590. (FIGS. 11B-11C) Boyden chamber assay of cancer cell migration and invasion. 4T1.2 cells (B) or EO771 cells (FIG. 11C) were plated on the upper chamber inserts, with untreated (Control), 4T1.2 CM-activated or lactate-activated spleen-derived WT or Gpr132-KO macrophages plated in the lower chambers. For invasion assay, the inserts were pre-coated with 60 μl matrigel. After migration for 6 hrs (FIG. 11B) or invasion for 24 hrs (FIG. 11C), the migrated or invaded cells were stained with crystal violet and counted as cells per field of view under microscope (n=3-4); For (FIG. 11C), the first bar of each data set of the bar graphs represents the control mf, and the second bar represents Gpr132KO; *p<0.05; **p<0.01; ***p<0.005; ****p<0.001. […]
Cancer cells were treated with the conditioned medium from indicated macrophage for 2 hrs. Adherence of treated breast cancer cells to fibronectin was evaluated as described.

[2] = test system: AKT/mTOR signaling; assay: PathScan Akt Signaling Antibody Array in macrophages; format: cell-based, mouse; conditions: lactate 5 mM for 15 min
Description: FIG. 20. Lactate activates macrophage AKT/mTOR signaling via Gpr132. WT and Gpr132-KO bone marrow-derived macrophages were serum starved for 24 hrs. After treatment with lactate (5 mM) for 15 min, cell lysate was harvested for detecting the activation status of AKT signaling pathway using a PathScan Akt Signaling Antibody Array Kit. WT, wild-type; Gpr132-KO, Gpr132 knockout.
To identify the signaling pathways that may mediate the function of lactate-Gpr132 axis in M2 macrophage activation, PathScan Akt Signaling Antibody Array was used to screen potential targets due to the importance of the Akt pathway in macrophage polarization. […] These findings reveal that lactate activation of Gpr132 facilitates macrophage M2 activation by augmenting AKT/mTOR signaling.
Samples of 20 μg protein were applied to SDS polyacrylamide gels. After protein transfer, membranes were incubated with antibodies for Arg-1 (rabbit polyclonal, Santa Cruz Biotechnology), CD206, Gpr132, or β-actin (mouse monoclonal, Sigma) (1:1000) overnight at 4° C. […] Densitometric quantification was performed by Image-Pro Plus 6.0 software (Media Cybernetics). PathScan Akt Signaling Antibody Array (Cell Signaling) was incubated with macrophage proteins and analyzed following kit instructions.

[3] = target: T1, macrophage Gpr132 (Mus musculus, UniProt Q9Z282); assay: Gpr132 co-immunoprecipitation with LC-MS quantification of lactate; format: binding; conditions: lactate of <3 kDa EO771 CM, BMDM lysate
T1 construct: endogenous in cells; host or cells: bone marrow-derived macrophages (BMDMs) from WT C57BL/6 mice; Gpr132-KO BMDMs served as negative control
T1 sequence (Q9Z282 1-382): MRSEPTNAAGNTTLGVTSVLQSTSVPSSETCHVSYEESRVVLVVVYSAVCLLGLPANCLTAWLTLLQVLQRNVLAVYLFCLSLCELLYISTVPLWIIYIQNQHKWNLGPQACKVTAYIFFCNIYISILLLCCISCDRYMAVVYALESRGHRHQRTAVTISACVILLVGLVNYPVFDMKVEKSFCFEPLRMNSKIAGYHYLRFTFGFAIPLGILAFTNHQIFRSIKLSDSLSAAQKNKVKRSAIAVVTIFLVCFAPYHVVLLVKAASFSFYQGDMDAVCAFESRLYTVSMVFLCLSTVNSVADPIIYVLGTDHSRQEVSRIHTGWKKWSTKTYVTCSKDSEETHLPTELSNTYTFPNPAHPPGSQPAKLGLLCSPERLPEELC
Description: To determine whether lactate in the <3 kDa fraction of EO771 CM could bind to macrophage Gpr132, co-immunoprecipitation with anti-Gpr132 in WT and Gpr132-KO BMDMs was performed. Lactate pulled down by Gpr132 was quantified by liquid chromatography-mass spectrometry (LC-MS).
WT or Gpr132-KO BMDM lysate was incubated with concentrated <3 kDa EO771 CM for 4 hrs. This mixture of 1 ml volume was then incubated with 10 μl anti-Gpr132 antibody and 40 μl protein A/G plus-agarose beads overnight at 4° C. After the beads were washed, the IP eluent was collected for lactate quantification. Lactate was extracted and analyzed as reported (7). Briefly, 400 μl of cold MeOH was added to 100 μl of the IP eluent. Samples were mixed and then stored at −80° C. overnight. The next morning, samples were spun at 14,000 g for 10 min, and the supernatant was collected. After drying the supernatant via speedvac, the extract was dissolved in H2O (40 μl) and a portion of this sample (10 μl) analyzed by LC-MS. Lactate was measured using a TSQ Quantiva LC-MS instrument fitted with a Luna NH2 HPLC column ([…], 4.6 mm×100 mm, Phenomenex). The following LC solvents were used: buffer A, 95:5 H2O/ACN, 20 mM ammonium hydroxide, 20 mM ammonium acetate; buffer B, 100% ACN. […] Relative abundance of lactate was determined by measuring the lactate peak area.

- lactate enrichment in Gpr132 co-IP eluent, WT vs Gpr132-KO macrophages [3]: 7.1 fold
SMILES: CC(O)C(=O)O (stereo not shown) [lactate]
- adherence of 4T1.2 cells to fibronectin with CM from activated macrophages [1]: significantly increased
- increase of AKT/mTOR pathway phosphorylation in Gpr132-KO macrophages ([2]; Gpr132-KO BMDMs): not
- phosphorylation of AKT (Thr308), mTOR (Ser2481), S6 Ribosomal protein (Ser235/236) and RSK-1 (Thr421/Ser424) in WT macrophages ([2]; serum starved WT BMDMs): increased
